Results as given in paper PMC7835349 (Communications Biology, 2021).
Several values for one entry are separate records, joined by “and”; a condition that tells them apart may be missing. Equal entries are not always repeated.

Experiments:
OCI-LY10 xenograft = OCI-LY10 xenograft efficacy and survival; assay type: in vivo, C.B-17 SCID mouse; design: OCI-LY10 xenograft efficacy, individual animals: unit not given here; details: for OCI-LY10 xenograft efficacy, individual animals: Acalabrutinib 12.5mpk BID
Procedure: (§1) Female C.B.−17 SCID mice were purchased from Charles River Laboratories. Mice were 5–8 weeks old at the time of tumour implantation. All xenograft studies were conducted at our Association for the Assessment and Accreditation of Laboratory Animal Care accredited facility in Waltham, MA in accordance with ethical regulations described in the guidelines established by the internal Institutional Animal Care and Use Committee. The dendrimer conjugates were formulated in citrate/phosphate buffer pH 5.0, diluted 1:10 with 5% glucose containing 1% w/v Kolliphor HS15, and AZD4320 was formulated in 30% HP-β-CD and dosed as a weekly intravenous (IV) administration at a volume of 5 ml/kg at the indicated doses. Five million RS4;11, five million SUDHL-4 or five million OCI-LY-10 cells were injected subcutaneously in the right flank of mice in a volume of 0.1 ml. Tumour volumes (measured by caliper), animal body weight, and tumor condition were recorded twice weekly for the duration of the study. The tumour volume was calculated (taking length to be the longest diameter across the tumour and width to be the corresponding perpendicular diameter) using the formula: length (mm) x width (mm)^2/0.52. For efficacy studies, mice were randomized based on tumour volumes using stratified sampling and enrolled into control and treatment groups. Tumour growth inhibition from the start of treatment was quantified by measuring the difference in tumour volume between control and treated groups. Survival analysis was evaluated using Mantel-Cox test. Tumours were also taken for bioanalysis.

SUDHL-4 xenograft = SUDHL-4 xenograft efficacy and survival; assay type: in vivo, C.B-17 SCID mouse; details: Rituxan (Rtx) 10 mg/kg
Procedure: as §1

Compound	OCI-LY10 xenograft efficacy, individual animals (OCI-LY10 xenograft; day 18)	OCI-LY10 xenograft efficacy, individual animals (OCI-LY10 xenograft; day 21)	OCI-LY10 xenograft efficacy, individual animals (OCI-LY10 xenograft; day 25)	OCI-LY10 xenograft efficacy, individual animals (OCI-LY10 xenograft; day 28)	OCI-LY10 xenograft efficacy, individual animals (OCI-LY10 xenograft; day 32)	OCI-LY10 xenograft efficacy, individual animals (OCI-LY10 xenograft; day 35)	OCI-LY10 xenograft efficacy, individual animals (OCI-LY10 xenograft; day 39)	OCI-LY10 xenograft efficacy, individual animals (OCI-LY10 xenograft; day 42)	monotherapy activity (OCI-LY10 xenograft; OCI-LY10 DLBCL model)	SUDHL-4 xenograft efficacy, Geo Mean (SUDHL-4 xenograft; day 1)	SUDHL-4 xenograft efficacy, Geo Mean (SUDHL-4 xenograft; day 5)	SUDHL-4 xenograft efficacy, Geo Mean (SUDHL-4 xenograft; day 9)	SUDHL-4 xenograft efficacy, Geo Mean (SUDHL-4 xenograft; day 12)	SUDHL-4 xenograft efficacy, Geo Mean (SUDHL-4 xenograft; day 16)	SUDHL-4 xenograft efficacy, Geo Mean (SUDHL-4 xenograft; day 19)	SUDHL-4 xenograft efficacy, Geo Mean (SUDHL-4 xenograft; day 23)	SUDHL-4 xenograft efficacy, Geo Mean (SUDHL-4 xenograft; day 26)	SUDHL-4 xenograft efficacy, Geo Mean (SUDHL-4 xenograft; day 29)	SUDHL-4 xenograft efficacy, Geo Mean (SUDHL-4 xenograft; day 32)
CC#CC(=O)N1CCC[C@H]1c1nc(-c2ccc(C(=O)Nc3ccccn3)cc2)c2c(N)nccn12 [acalabrutinib, reference compound]	127 and 164 and 248 and 101 and 210 and 188 and 174 and 141	221 and 332 and 538 and 104 and 333 and 303 and 198 and 259	299 and 256 and 495 and 88 and 284 and 527 and 334 and 162	232 and 311 and 519 and 141 and 436 and 334 and 361 and 191	363 and 375 and 663 and 150 and 384 and 401 and 347 and 391	402 and 443 and 532 and 209 and 471 and 429 and 383 and 277	393 and 553 and 891 and 198 and 472 and 366 and 578 and 547	405 and 474 and 589 and 106 and 385 and 656 and 416 and 224	neither agent showed any demonstrable monotherapy activity	–	–	–	–	–	–	–	–	–	–
Rituxan (Rtx)	–	–	–	–	–	–	–	–	–	207.17	194.343	229.272	236.829	277.244	341.784	461.782	534.569	692.979	702.104
